Test results from patent EP4722207A1, “OXOISOINDOLINYL-SUBSTITUTED TETRAHYDROPYRIMIDINEDIONE DERIVATIVE AND USE THEREOF” (Gluetacs Therapeutics (Shanghai) Co., Ltd., priority 2023, dated 2024).

Columns and labels:
Format in all cases: cell-based
IKZF3 = molecular target: T1, IKZF3 (Homo sapiens, UniProt Q96SW2+Q9UKT9); assay: Western-blot assay, substrate protein degradation in hPBMCs: IKZF3; details: for substrate protein remaining % IKZF3: 24 hours of compound treatment, 50 nM and 500 nM; for IKZF3 substrate protein remaining %: compounds at 50 nM and 500 nM, 24 hours
T1 construct: effects of the compounds of the present disclosure on the expression of target proteins in cells; endogenous in cells; host or cells: human PBMCs (hPBMCs)

WEE1 = molecular target: T2, WEE1 (Homo sapiens, UniProt P30291+Q96SW2); assay: Western-blot assay, substrate protein degradation in hPBMCs: WEE1; details: for substrate protein remaining % WEE1: 24 hours of compound treatment, 50 nM and 500 nM; for WEE1 substrate protein remaining %: compounds at 50 nM and 500 nM, 24 hours
T2 construct: effects of the compounds of the present disclosure on the expression of target proteins in cells; endogenous in cells; host or cells: human PBMCs (hPBMCs)

IKZF2 = molecular target: T3, IKZF2 (Homo sapiens, UniProt Q96SW2+Q9UKS7); assay: Western-blot assay, substrate protein degradation in hPBMCs: IKZF2; details: for substrate protein remaining % IKZF2: 24 hours of compound treatment, 50 nM and 500 nM; for IKZF2 substrate protein remaining %: compounds at 50 nM and 500 nM, 24 hours
T3 construct: effects of the compounds of the present disclosure on the expression of target proteins in cells; endogenous in cells; host or cells: human PBMCs (hPBMCs)

CK1α = molecular target: T4, CK1α (Homo sapiens, UniProt P48729+Q96SW2); assay: Western-blot assay, substrate protein degradation in hPBMCs: CK1α; details: for substrate protein remaining % CK1α: 24 hours of compound treatment, 50 nM and 500 nM; for CK1α substrate protein remaining %: compounds at 50 nM and 500 nM, 24 hours
T4 construct: effects of the compounds of the present disclosure on the expression of target proteins in cells; endogenous in cells; host or cells: human PBMCs (hPBMCs)

GSPT1 = molecular target: T5, GSPT1 (Homo sapiens, UniProt P15170+Q96SW2); assay: Western-blot assay, substrate protein degradation in hPBMCs: GSPT1; details: for substrate protein remaining % GSPT1: 24 hours of compound treatment, 50 nM and 500 nM; for GSPT1 substrate protein remaining %: compounds at 50 nM and 500 nM, 24 hours
T5 construct: effects of the compounds of the present disclosure on the expression of target proteins in cells; endogenous in cells; host or cells: human PBMCs (hPBMCs)

IKZF1 = molecular target: T6, IKZF1 (Homo sapiens, UniProt Q13422+Q96SW2); assay: Western-blot assay, substrate protein degradation in hPBMCs: IKZF1; details: for substrate protein remaining % IKZF1: 24 hours of compound treatment, 50 nM and 500 nM; for IKZF1 substrate protein remaining %: compounds at 50 nM and 500 nM, 24 hours
T6 construct: effects of the compounds of the present disclosure on the expression of target proteins in cells; endogenous in cells; host or cells: human PBMCs (hPBMCs)
T6 sequence (Q13422 whole entry): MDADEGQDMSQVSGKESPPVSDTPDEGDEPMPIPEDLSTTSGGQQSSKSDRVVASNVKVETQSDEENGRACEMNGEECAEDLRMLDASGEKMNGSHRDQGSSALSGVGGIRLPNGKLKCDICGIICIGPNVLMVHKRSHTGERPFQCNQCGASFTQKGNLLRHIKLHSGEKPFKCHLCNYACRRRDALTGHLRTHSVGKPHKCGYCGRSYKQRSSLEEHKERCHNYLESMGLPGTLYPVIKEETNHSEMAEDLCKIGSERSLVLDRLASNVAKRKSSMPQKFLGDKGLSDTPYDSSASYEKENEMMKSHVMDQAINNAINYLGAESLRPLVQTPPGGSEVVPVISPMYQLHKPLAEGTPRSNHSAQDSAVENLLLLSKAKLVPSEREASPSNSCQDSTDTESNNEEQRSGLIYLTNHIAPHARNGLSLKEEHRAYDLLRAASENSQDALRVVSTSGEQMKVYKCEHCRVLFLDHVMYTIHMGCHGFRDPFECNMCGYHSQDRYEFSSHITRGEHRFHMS
T6 sequence (Q96SW2 whole entry): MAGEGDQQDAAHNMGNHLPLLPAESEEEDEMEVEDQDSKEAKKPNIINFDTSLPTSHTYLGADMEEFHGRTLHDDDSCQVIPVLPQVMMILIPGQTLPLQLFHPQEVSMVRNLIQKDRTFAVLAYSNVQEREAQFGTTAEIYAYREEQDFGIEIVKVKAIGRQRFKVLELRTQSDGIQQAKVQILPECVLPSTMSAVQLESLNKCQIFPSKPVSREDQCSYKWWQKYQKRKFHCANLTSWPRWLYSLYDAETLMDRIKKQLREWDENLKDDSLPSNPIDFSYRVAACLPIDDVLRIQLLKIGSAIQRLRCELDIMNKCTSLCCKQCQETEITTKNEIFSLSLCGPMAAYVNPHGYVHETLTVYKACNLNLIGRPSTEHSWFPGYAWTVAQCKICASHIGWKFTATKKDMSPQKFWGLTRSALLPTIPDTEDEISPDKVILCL
T6 sequence (Q16531 whole entry partner): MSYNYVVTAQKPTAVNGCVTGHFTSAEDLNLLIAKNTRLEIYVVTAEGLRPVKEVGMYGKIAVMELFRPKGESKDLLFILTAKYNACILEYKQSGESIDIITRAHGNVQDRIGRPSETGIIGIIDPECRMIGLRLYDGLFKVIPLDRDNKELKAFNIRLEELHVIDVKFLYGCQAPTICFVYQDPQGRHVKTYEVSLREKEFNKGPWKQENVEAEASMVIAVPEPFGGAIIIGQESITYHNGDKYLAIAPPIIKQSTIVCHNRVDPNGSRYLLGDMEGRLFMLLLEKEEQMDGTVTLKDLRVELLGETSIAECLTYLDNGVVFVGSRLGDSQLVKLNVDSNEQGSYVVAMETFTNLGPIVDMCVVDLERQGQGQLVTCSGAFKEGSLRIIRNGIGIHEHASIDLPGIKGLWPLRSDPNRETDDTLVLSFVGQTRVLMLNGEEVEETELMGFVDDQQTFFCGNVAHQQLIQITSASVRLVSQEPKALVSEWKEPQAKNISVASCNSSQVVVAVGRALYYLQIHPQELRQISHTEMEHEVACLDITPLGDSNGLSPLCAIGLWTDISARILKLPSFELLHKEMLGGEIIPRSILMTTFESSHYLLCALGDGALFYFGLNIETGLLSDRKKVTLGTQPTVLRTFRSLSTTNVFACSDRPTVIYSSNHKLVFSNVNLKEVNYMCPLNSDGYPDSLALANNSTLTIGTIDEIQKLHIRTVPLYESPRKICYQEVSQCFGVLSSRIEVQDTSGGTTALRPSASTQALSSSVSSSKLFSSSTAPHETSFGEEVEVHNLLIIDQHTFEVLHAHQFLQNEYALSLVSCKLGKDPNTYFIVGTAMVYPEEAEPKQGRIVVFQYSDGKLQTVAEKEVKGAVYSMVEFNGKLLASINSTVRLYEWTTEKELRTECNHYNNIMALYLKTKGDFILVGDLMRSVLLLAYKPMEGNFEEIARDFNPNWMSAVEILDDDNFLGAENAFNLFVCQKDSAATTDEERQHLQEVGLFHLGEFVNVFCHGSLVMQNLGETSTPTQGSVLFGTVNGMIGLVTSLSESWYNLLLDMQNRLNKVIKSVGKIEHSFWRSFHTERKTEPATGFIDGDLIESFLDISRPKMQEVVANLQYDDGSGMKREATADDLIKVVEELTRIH

T3 sequence (Q9UKS7 whole entry): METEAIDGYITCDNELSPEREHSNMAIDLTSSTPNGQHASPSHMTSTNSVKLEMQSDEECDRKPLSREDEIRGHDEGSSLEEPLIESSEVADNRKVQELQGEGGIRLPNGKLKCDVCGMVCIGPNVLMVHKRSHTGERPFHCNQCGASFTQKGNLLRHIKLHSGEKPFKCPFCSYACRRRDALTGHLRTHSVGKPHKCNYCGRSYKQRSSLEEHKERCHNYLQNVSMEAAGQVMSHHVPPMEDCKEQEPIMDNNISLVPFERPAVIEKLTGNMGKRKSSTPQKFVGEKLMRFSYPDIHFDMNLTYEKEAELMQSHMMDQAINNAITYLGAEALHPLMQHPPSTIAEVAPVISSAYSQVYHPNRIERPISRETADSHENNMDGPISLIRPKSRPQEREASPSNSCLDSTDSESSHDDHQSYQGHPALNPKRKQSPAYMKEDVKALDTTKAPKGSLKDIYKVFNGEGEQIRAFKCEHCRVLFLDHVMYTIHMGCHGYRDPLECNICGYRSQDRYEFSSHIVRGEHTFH
T3 sequence (Q96SW2 whole entry): as the sequence (Q96SW2 whole entry) above
T3 sequence (Q16531 whole entry partner): as the sequence (Q16531 whole entry partner) above
T5 sequence (P15170 whole entry): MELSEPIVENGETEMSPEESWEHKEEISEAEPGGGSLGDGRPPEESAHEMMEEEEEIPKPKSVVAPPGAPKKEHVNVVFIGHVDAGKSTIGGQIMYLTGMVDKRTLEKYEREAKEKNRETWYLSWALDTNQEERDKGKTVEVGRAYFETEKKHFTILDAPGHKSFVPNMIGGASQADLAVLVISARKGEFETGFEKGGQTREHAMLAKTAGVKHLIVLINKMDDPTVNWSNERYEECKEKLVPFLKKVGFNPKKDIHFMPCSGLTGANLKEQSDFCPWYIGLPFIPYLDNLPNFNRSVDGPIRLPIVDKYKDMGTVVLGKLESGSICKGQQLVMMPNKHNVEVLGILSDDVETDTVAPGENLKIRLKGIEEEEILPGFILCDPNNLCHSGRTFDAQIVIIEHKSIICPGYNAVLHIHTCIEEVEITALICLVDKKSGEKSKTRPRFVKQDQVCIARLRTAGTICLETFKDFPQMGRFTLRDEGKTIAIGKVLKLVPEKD
T5 sequence (Q96SW2 whole entry): as the sequence (Q96SW2 whole entry) above
T5 sequence (Q16531 whole entry partner): as the sequence (Q16531 whole entry partner) above
T2 sequence (P30291 whole entry): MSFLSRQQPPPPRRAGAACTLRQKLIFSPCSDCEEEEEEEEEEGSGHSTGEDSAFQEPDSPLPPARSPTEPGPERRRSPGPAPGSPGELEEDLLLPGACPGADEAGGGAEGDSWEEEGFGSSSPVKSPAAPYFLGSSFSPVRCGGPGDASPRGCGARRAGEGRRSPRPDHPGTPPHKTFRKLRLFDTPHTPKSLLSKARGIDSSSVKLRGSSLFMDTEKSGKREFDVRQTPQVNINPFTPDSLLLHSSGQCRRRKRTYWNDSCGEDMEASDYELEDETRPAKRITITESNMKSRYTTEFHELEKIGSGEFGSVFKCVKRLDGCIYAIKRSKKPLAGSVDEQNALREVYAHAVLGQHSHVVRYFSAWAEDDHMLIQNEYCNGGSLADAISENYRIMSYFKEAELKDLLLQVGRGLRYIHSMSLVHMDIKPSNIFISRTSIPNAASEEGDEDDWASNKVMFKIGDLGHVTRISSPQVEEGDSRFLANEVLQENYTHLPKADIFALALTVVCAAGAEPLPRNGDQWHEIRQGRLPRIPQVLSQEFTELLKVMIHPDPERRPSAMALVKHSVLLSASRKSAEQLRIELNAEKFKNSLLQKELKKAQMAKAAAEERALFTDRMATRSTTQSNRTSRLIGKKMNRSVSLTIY
T2 sequence (Q96SW2 whole entry): as the sequence (Q96SW2 whole entry) above
T2 sequence (Q16531 whole entry partner): as the sequence (Q16531 whole entry partner) above
T1 sequence (Q9UKT9 whole entry): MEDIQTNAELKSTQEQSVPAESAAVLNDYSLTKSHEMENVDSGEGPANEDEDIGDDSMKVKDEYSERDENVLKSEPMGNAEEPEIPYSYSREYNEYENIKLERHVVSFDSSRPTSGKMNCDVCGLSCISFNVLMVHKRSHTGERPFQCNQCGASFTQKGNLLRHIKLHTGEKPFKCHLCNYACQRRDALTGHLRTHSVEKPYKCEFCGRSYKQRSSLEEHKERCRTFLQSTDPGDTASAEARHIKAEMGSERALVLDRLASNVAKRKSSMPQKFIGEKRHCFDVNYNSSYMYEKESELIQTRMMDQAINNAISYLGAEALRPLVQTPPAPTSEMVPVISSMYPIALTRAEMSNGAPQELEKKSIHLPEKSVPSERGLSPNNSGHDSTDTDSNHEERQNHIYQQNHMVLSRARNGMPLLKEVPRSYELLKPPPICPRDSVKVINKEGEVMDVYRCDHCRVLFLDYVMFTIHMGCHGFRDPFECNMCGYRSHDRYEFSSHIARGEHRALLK
T1 sequence (Q96SW2 whole entry): as the sequence (Q96SW2 whole entry) above
T1 sequence (Q16531 whole entry partner): as the sequence (Q16531 whole entry partner) above

| SMILES | substrate protein remaining % IKZF3 (IKZF3) | substrate protein remaining % WEE1 (WEE1) | substrate protein remaining % IKZF2 (IKZF2) | substrate protein remaining % CK1α (CK1α) | substrate protein remaining % GSPT1 (GSPT1) | substrate protein remaining % IKZF1 (IKZF1) | IKZF3 substrate protein remaining % (IKZF3) | WEE1 substrate protein remaining % (WEE1) | IKZF2 substrate protein remaining % (IKZF2) | CK1α substrate protein remaining % (CK1α) | GSPT1 substrate protein remaining % (GSPT1) | IKZF1 substrate protein remaining % (IKZF1) |
| --- | --- | --- | --- | --- | --- | --- | --- | --- | --- | --- | --- | --- |
| NCc1ccc2c(c1)C(=O)N(N1CCC(=O)NC1=O)C2=O [GT-07968, 5-(aminomethyl)-2-(2,4-dioxotetrahydropyrimidin-1(2H)-yl)isoindoline-1,3-dione] | A (0% ≤ substrate protein remaining % ≤ 80%) | A (0% ≤ substrate protein remaining % ≤ 80%) | A (0% ≤ substrate protein remaining % ≤ 80%) | A (0% ≤ substrate protein remaining % ≤ 80%) | B (80%< substrate protein remaining %≤ 100%) | A (0% ≤ substrate protein remaining % ≤ 80%) |  |  |  |  |  |  |
| COc1ccc(N2CCN(Cc3ccc4c(c3)C(=O)N(N3CCC(=O)NC3=O)C4=O)CC2)cc1 [GT-06728, 2-(2,4-dioxotetrahydropyrimidin-1(2H)-yl)-5-((4-(4-methoxyphenyl)piperazin-1-yl)methyl)isoindoline-1,3-dione] |  |  |  |  |  |  | A ("A" is defined as 0% ≤ substrate protein remaining % ≤ 80%) | B ("B" is defined as 80%< substrate protein remaining %≤ 100%) | A ("A" is defined as 0% ≤ substrate protein remaining % ≤ 80%) | A ("A" is defined as 0% ≤ substrate protein remaining % ≤ 80%) | B ("B" is defined as 80%< substrate protein remaining %≤ 100%) | B ("B" is defined as 80%< substrate protein remaining %≤ 100%) |
| O=C1CCN(N2C(=O)c3ccc(CN4CC=C(c5n[nH]c6cc(F)ccc56)CC4)cc3C2=O)C(=O)N1 [GT-07643, 2-(2,4-dioxotetrahydropyrimidin-1(2H)-yl)-5-((4-(6-fluoro-1H-indazol-3-yl)-3,6-dihydropyridin-1(2H)-yl)methyl)isoindoline-1,3-dione] | B (80%< substrate protein remaining %≤ 100%) | B (80%< substrate protein remaining %≤ 100%) | B (80%< substrate protein remaining %≤ 100%) | B (80%< substrate protein remaining %≤ 100%) | A (0% ≤ substrate protein remaining % ≤ 80%) | B (80%< substrate protein remaining %≤ 100%) |  |  |  |  |  |  |
| O=C1CCN(N2C(=O)c3ccc(CN4CCC(Nc5ccccc5-c5ccc(Cl)cc5)CC4)cc3C2=O)C(=O)N1 [GT-05179, 5-((4-((4'-chloro-[1,1'-biphenyl]-2-yl)amino)piperidin-1-yl)methyl)-2-(2,4-dioxotetrahydropyrimidin-1(2H)-yl)isoindoline-1,3-dione] |  |  |  |  |  |  | B ("B" is defined as 80%< substrate protein remaining %≤ 100%) | A ("A" is defined as 0% ≤ substrate protein remaining % ≤ 80%) | B ("B" is defined as 80%< substrate protein remaining %≤ 100%) | B ("B" is defined as 80%< substrate protein remaining %≤ 100%) | B ("B" is defined as 80%< substrate protein remaining %≤ 100%) | B ("B" is defined as 80%< substrate protein remaining %≤ 100%) |
| O=C1CCN(N2C(=O)c3ccc(CN4CCN(c5ccncc5Cl)CC4)cc3C2=O)C(=O)N1 [GT-07165, 5-((4-(3-chloropyridin-4-yl)piperazin-1-yl)methyl)-2-(2,4-dioxotetrahydropyrimidin-1(2H)-yl)isoindoline-1,3-dione] |  |  |  |  |  |  | B ("B" is defined as 80%< substrate protein remaining %≤ 100%) | B ("B" is defined as 80%< substrate protein remaining %≤ 100%) | A ("A" is defined as 0% ≤ substrate protein remaining % ≤ 80%) | B ("B" is defined as 80%< substrate protein remaining %≤ 100%) | A ("A" is defined as 0% ≤ substrate protein remaining % ≤ 80%) | B ("B" is defined as 80%< substrate protein remaining %≤ 100%) |
| O=C1CCN(N2C(=O)c3ccc(CN4CCC(N(c5ccccc5)c5ccccc5)CC4)cc3C2=O)C(=O)N1 [GT-05177, 2-(2,4-dioxotetrahydropyrimidin-1(2H)-yl)-5-((4-(diphenylamino)piperidin-1-yl)methyl)isoindoline-1,3-dione] |  |  |  |  |  |  | B ("B" is defined as 80%< substrate protein remaining %≤ 100%) | B ("B" is defined as 80%< substrate protein remaining %≤ 100%) | B ("B" is defined as 80%< substrate protein remaining %≤ 100%) | B ("B" is defined as 80%< substrate protein remaining %≤ 100%) | A ("A" is defined as 0% ≤ substrate protein remaining % ≤ 80%) | B ("B" is defined as 80%< substrate protein remaining %≤ 100%) |
| O=C1CCN(N2C(=O)c3ccc(CN4CC=C(c5ccco5)CC4)cc3C2=O)C(=O)N1 [GT-05317, 2-(2,4-dioxotetrahydropyrimidin-1(2H)-yl)-5-((4-(furan-2-yl)-3,6-dihydropyridin-1(2H)-yl)methyl)isoindoline-1,3-dione] |  |  |  |  |  |  | B ("B" is defined as 80%< substrate protein remaining %≤ 100%) | B ("B" is defined as 80%< substrate protein remaining %≤ 100%) | B ("B" is defined as 80%< substrate protein remaining %≤ 100%) | B ("B" is defined as 80%< substrate protein remaining %≤ 100%) | A ("A" is defined as 0% ≤ substrate protein remaining % ≤ 80%) | B ("B" is defined as 80%< substrate protein remaining %≤ 100%) |
| O=C1CCN(N2C(=O)c3ccc(CN4CCC(c5ccc(Br)cc5)CC4)cc3C2=O)C(=O)N1 [GT-06805, 5-((4-(4-bromophenyl)piperidin-1-yl)methyl)-2-(2,4-dioxotetrahydropyrimidin-1(2H)-yl)isoindoline-1,3-dione] |  |  |  |  |  |  | B ("B" is defined as 80%< substrate protein remaining %≤ 100%) | B ("B" is defined as 80%< substrate protein remaining %≤ 100%) | B ("B" is defined as 80%< substrate protein remaining %≤ 100%) | A ("A" is defined as 0% ≤ substrate protein remaining % ≤ 80%) | B ("B" is defined as 80%< substrate protein remaining %≤ 100%) | B ("B" is defined as 80%< substrate protein remaining %≤ 100%) |
| O=C1CCN(N2Cc3cc(CN4CCN(c5ccnc(Cl)c5F)CC4)ccc3C2=O)C(=O)N1 [GT-07069, 1-(5-((4-(2-chloro-3-fluoropyridin-4-yl)piperazin-1-yl)methyl)-1-oxoisoindolin-2-yl)dihydropyrimidine-2,4(1H,3H)-dione] |  |  |  |  |  |  | B ("B" is defined as 80%< substrate protein remaining %≤ 100%) | A ("A" is defined as 0% ≤ substrate protein remaining % ≤ 80%) | B ("B" is defined as 80%< substrate protein remaining %≤ 100%) | B ("B" is defined as 80%< substrate protein remaining %≤ 100%) | B ("B" is defined as 80%< substrate protein remaining %≤ 100%) | B ("B" is defined as 80%< substrate protein remaining %≤ 100%) |
| O=C1CCN(N2C(=O)c3ccc(CN4CCN(c5ccc(Cl)cc5)CC4)cc3C2=O)C(=O)N1 [GT-06783, 5-((4-(4-chlorophenyl)piperazin-1-yl)methyl)-2-(2,4-dioxotetrahydropyrimidin-1(2H)-yl)isoindoline-1,3-dione] |  |  |  |  |  |  | A ("A" is defined as 0% ≤ substrate protein remaining % ≤ 80%) | B ("B" is defined as 80%< substrate protein remaining %≤ 100%) | B ("B" is defined as 80%< substrate protein remaining %≤ 100%) | B ("B" is defined as 80%< substrate protein remaining %≤ 100%) | B ("B" is defined as 80%< substrate protein remaining %≤ 100%) | B ("B" is defined as 80%< substrate protein remaining %≤ 100%) |
| CC1(C)CCC(CN2CC3CCC2CN3Cc2ccc3c(c2)CN(N2CCC(=O)NC2=O)C3=O)=C(c2ccc(Cl)cc2)C1 (stereo not drawn) [GT-07331, 1-(5-((5-((4'-chloro-5,5-dimethyl-3,4,5,6-tetrahydro-[1,1'-biphenyl]-2-yl)methyl)-2,5-diazabicyclo[2.2.2]octan-2-yl)methyl)-1-oxoisoindolin-2-yl)dihydropyrimidine-2,4(1H,3H)-dione] | A (0% ≤ substrate protein remaining % ≤ 80%) | A (0% ≤ substrate protein remaining % ≤ 80%) | B (80%< substrate protein remaining %≤ 100%) | A (0% ≤ substrate protein remaining % ≤ 80%) | A (0% ≤ substrate protein remaining % ≤ 80%) | A (0% ≤ substrate protein remaining % ≤ 80%) |  |  |  |  |  |  |
| O=C1CCN(N2Cc3cc(CN4CCC(C5CCOc6cc(F)ccc65)CC4)ccc3C2=O)C(=O)N1 (stereo not drawn) [GT-07587, 1-(5-((4-(7-fluorochroman-4-yl)piperidin-1-yl)methyl)-1-oxoisoindolin-2-yl)dihydropyrimidine-2,4(1H,3H)-dione] | B (80%< substrate protein remaining %≤ 100%) | A (0% ≤ substrate protein remaining % ≤ 80%) | B (80%< substrate protein remaining %≤ 100%) | B (80%< substrate protein remaining %≤ 100%) | A (0% ≤ substrate protein remaining % ≤ 80%) | A (0% ≤ substrate protein remaining % ≤ 80%) |  |  |  |  |  |  |
